In patent US10039761B2, “Co-crystals and pharmaceutical compositions comprising the same” (Vertex Pharmaceuticals Incorporated, priority 2013, dated 2018):

Columns and labels:
[1] = Body weight in LU-01-0030 xenograft studies; format: in vivo, mice
Method: The in vivo efficacies of Compounds (1) and (2) were evaluated alone and in combination with three consecutive days of focused IR in the primary LU-01-0030 NSCLC subcutaneous xenograft model. The dose-dependent anti-tumor activity of Compound (2) alone and in combination with focused beam IR was evaluated in the LU-01-0030 model. […] Mice in the combination treatment groups were monitored (without treatment) for up to 90 days as some mice had no evidence of tumor burden.

[2] = test system: OD26749 primary NSCLC xenograft; assay: OD26749 primary NSCLC xenograft efficacy with whole body IR; format: in vivo, nude mice
Method: The in vivo efficacies of Compounds (1) and (2) in combination with whole body IR were examined in the OD26749 primary NSCLC (non-small cell lung cancer) and the OE-19 GEJ cell line xenograft models. In these studies, Compounds (1) and (2) were formulated with 16% captisol/1% PVP/1% HPMC E5 pH2.
The in vivo efficacy of Compound (1) was evaluated in the primary OD26749 NSCLC subcutaneous xenograft model. […] […] Compound (1) was administered PO (tid at 0, 3, and 7 h) at 100 mg/kg alone or with a single 2 Gy dose of whole body IR at 3.25 h. […] Compound (1) in combination with 2 Gy whole body IR induced significant tumor regression (% T/Ti of −75; P<0.01) compared to IR alone.
The efficacies of Compounds (1) and (2) in combination with whole body IR (2 Gy) were evaluated in the OD26749 primary NSCLC xenograft model at a Compound ([…]) and Compound (2) dose levels of 50 mg/kg and 100 mg/kg PO bid (0 and 4 h). Two cycles of whole body IR (2 Gy) were given 15 min after the first compound administration (0.25 hour). Control animals were administered vehicle PO bid (0 and 4 h). […]
(§1) In Tables 14 and 15, for example, PO bid (0, 4 h) indicates Compound (2) is administered twice (bid) at time point 0 and then 4 hours after; IR (0.25 h) qdx3 indicates radiation is administered 15 minutes (0.25 h) after the administration of Compound (2) (0 h), and once a day for 3 days (qdx3); q7dx2 indicates once a week for two weeks; qod indicates every other day twice (e.g., Day 1 and Day 3); and paclitaxel q7dx3 (−0.25 h), carboplatin q7dx3 (−0.25 h) indicates administration of paclitaxel and carboplatin 15 minutes prior to the administration of Compound (2), followed by additional administration of Compound (2) after 4 hours after the first administration of Compound (2).

primary human tumors = assay: Primary tumor chemosensitivity assay (TCA), Cell Titer-Glo, Bliss; format: cell-based
Method: Primary human tumors tested in vitro may provide a better indicator of efficacy of DNA PK inhibition than immortalized cancer cell lines due to their increased heterogeneity and closer proximity to the patient tumor from which they were derived. […] Dissociated cells from mouse-passaged tumors were cultured for 6 days after combination exposure and then assessed for viability using the Cell Titer-Glo assay. The Bliss Additivity statistical model was used to determine the degree of synergy, additivity, or antagonism of each combination treatment.

[3] = Body weight in OE-19 xenograft studies; format: in vivo
Method: The OE-19 cell line xenograft model was used to evaluate the efficacy of Compounds (1) and (2) alone and in combination with IR. Two cycles of treatment were administered (Day 0 and Day 7) as performed in the OD26749 model above.

[4] = Body weight in OD26749 xenograft studies; format: in vivo, nude mice; settings: bridging study; Compound (1) PO 100 mg/kg bid (0, 4 h), 2 Gy ([…]) qdx3; Day 1
[5] = test system: LU-01-0030 primary NSCLC subcutaneous xenograft; assay: LU-01-0030 primary NSCLC xenograft efficacy with focused IR; format: in vivo, mice
Method: The in vivo efficacies of Compounds (1) and (2) were evaluated alone and in combination with three consecutive days of focused IR in the primary LU-01-0030 NSCLC subcutaneous xenograft model. The dose-dependent anti-tumor activity of Compound (2) alone and in combination with focused beam IR was evaluated in the LU-01-0030 model.
as §1

[6] = test system: ST-02-0004 primary GEJ tumor xenograft; assay: ST-02-0004 primary GEJ tumor xenograft efficacy with focused IR; format: in vivo
Method: The in vivo activities of Compounds (1) and (2) were compared in combination with focused beam IR in a primary gastric cancer subcutaneous xenograft model. In the ST 02 0004 model, focused IR was administered on three consecutive days alone and in combination with Compound (1) or Compound (2).
The anti-tumor activity of Compound (2) in combination with focused-beam IR and the standard of care agents, paclitaxel and carboplatin, was also evaluated in the ST 02 0004 model. Treatment with paclitaxel, carboplatin, and IR was administered once per week for three weeks alone or in combination with Compound (2).
as §1

[7] = Blood exposure in OD26749 bridging study; format: in vivo, nude mice; settings: nude, mouse, whole blood; 100 mg/kg PO bid (0 and 4 h) combination groups with 2 Gy whole body IR

CNC(=O)c1ccnc2c([C@H](C)CNc3cc(-c4cnc(C)nc4)ncn3)cccc12 [Compound (1), (S)-N-methyl-8-(1-((2′-methyl-[4,5′-bipyrimidin]-6-yl)amino)propan-2-yl)quinoline-4-carboxamide]
Max. body wt loss (%) ([1]; Day 24 study, PO 10 mg/kg bid (0, 4 h) qdx3, 2 Gy IR qdx3 ([…]), Day 4): −1.46%
Max. body wt loss (%) ([1]; Day 24 study, PO 25 mg/kg bid (0, 4 h) qdx3, 2 Gy IR qdx3 ([…]), Day 4): −2.03%
Max. body wt loss (%) ([1]; Day 24 study, PO 50 mg/kg bid (0, 4 h) qdx3, 2 Gy IR qdx3 ([…]), Day 4): −1.19%
Max. body wt loss (%) ([1]; Day 24 study, PO 50 mg/kg bid (0, 4 h) qodx2, 2 Gy IR qdx3 ([…]), Day 4): −1.59%
Max. body wt loss (%) ([1]; Day 30 study, PO 100 mg/kg bid (0, 4 h) qdx3, 2 Gy IR ([…]) qdx3, Day 4): −1.42%
Max. body wt loss (%) ([1]; Day 30 study, PO 100 mg/kg tid (0, 3, 7 h) qdx3, 2 Gy IR ([…]) qdx3, Day 4): −1.58%
Max. body wt loss (%) ([1]; Day 30 study, PO 100 mg/kg tid (0, 3, 7 h) qdx5, 2 Gy IR ([…]) qdx3, Day 4): −1.68%
Max. body wt loss (%) ([1]; Day 30 study, PO 100 mg/kg tid (0, 3, 7 h) qdx5, no IR, Day 6): −0.63%
Max. body wt loss (%) ([1]; Day 31 study, PO 10 mg/kg bid (0, 4 h) qdx3, 2 Gy IR ([…]), Day 3): −3.33%
Max. body wt loss (%) ([1]; Day 31 study, PO 50 mg/kg bid (0, 4 h) qdx1, 2 Gy IR ([…]), Day 1): −0.59%
Max. body wt loss (%) ([1]; Day 31 study, PO 50 mg/kg bid (0, 4 h) qdx2, 2 Gy IR ([…]), Day 1): −2.11%
Max. body wt loss (%) ([1]; Day 31 study, PO 50 mg/kg bid (0, 4 h) qdx3, 2 Gy IR ([…]), Day 3): −0.94%
Max. body wt loss (%) ([1]; Day 31 study, PO 50 mg/kg qdx3, 2 Gy IR ([…]), Day 1): −2.07%
Max. body wt loss (%) ([1]; first Day 27 study, PO 25 mg/kg bid (0, 4 h) qdx3, 2 Gy ([…]) IR qdx3, Day 2): −5.81%
Max. body wt loss (%) ([1]; first Day 27 study, PO 50 mg/kg bid (0, 4 h) qdx3, 2 Gy ([…]) IR qdx3, Day 3): −5.70%
Max. body wt loss (%) ([1]; first Day 27 study, PO 100 mg/kg bid (0, 4 h) qdx3, 2 Gy ([…]) IR qdx3, Day 3): −2.87%
Max. body wt loss (%) ([1]; first Day 27 study, PO 100 mg/kg qdx3, 2 Gy ([…]) IR qdx3, Day 2): −3.68%
Max. body wt loss (%) ([1]; second Day 27 study, PO 10 mg/kg bid (0, 4 h) qdx3, 2 Gy ([…]) IR qdx3, Day 2): −5.81%
Max. body wt loss (%) ([1]; second Day 27 study, PO 25 mg/kg bid (0, 4 h) qdx3, 2 Gy ([…]) IR qdx3, Day 3): −5.70%
Max. body wt loss (%) ([1]; second Day 27 study, PO 50 mg/kg bid (0, 4 h) qdx2, 2 Gy ([…]) IR qdx3, Day 3): −2.87%
Max. body wt loss (%) ([1]; second Day 27 study, PO 50 mg/kg bid (0, 4 h) qdx3, 2 Gy ([…]) IR qdx3, Day 2): −3.68%
time to tumor doubling (TTD) ([2]; Compound (1) single agent group, 100 mg/kg tid, twice one week apart): 2 to 3 days
% T/C (Day 29) ([2]; PO 50 mg/kg bid (0, 4 h), 2 Gy IR ([…]) q7dx2): 11.7%
% T/Ti (Day 29) ([2]; PO 100 mg/kg bid (0, 4 h), 2 Gy IR ([…]) q7dx2): −3.1%
% T/Ti (Day 16) ([2]; PO 100 mg/kg tid (0, 3, 7 h) q7dx2, 2 Gy q7dx2 (3.25 h) whole body IR): −75%
% T/C (Day 16) ([2]; PO 100 mg/kg tid (0, 3, 7 h) q7dx2, no IR): 74%
time to tumor doubling (TTD) ([2]; combination group: 100 mg/kg tid with 2 Gy whole body IR, given twice one week apart): 33.4 days
tumors additive or synergistic / tumors tested (primary human tumors; Compound (1) (10× and 30× IC50) with bleomycin or radiation): 29/29
tumors with additivity / tumors tested (primary human tumors; Compound (1) with 5-FU): 5/5
tumors with strong synergy / tumors tested (primary human tumors; Compound (1) with bleomycin): 9/29
tumors with synergy or additivity / tumors tested (primary human tumors; Compound (1) with carboplatin): 5/5
tumors with antagonism (primary human tumors; Compound (1) with cisplatin): one tumor showed antagonism
tumors with synergy or additivity / tumors tested (primary human tumors; Compound (1) with cisplatin): 9/10
tumors with additivity / tumors tested (primary human tumors; Compound (1) with doxorubicin): 1/1
tumors with strong synergy / tumors tested (primary human tumors; Compound (1) with etoposide): 4/4
tumors with additivity / tumors tested (primary human tumors; Compound (1) with gemcitabine): 2/4
tumors with antagonism / tumors tested (primary human tumors; Compound (1) with gemcitabine): 2/4
tumors with additivity / tumors tested (primary human tumors; Compound (1) with paclitaxel): 1/5
tumors with antagonism / tumors tested (primary human tumors; Compound (1) with paclitaxel): 1/5
tumors with strong synergy / tumors tested (primary human tumors; Compound (1) with radiation): 3/8
Max. body weight loss (%) ([3]; PO 100 mg/kg bid (0, 4 h) qd7x2, 2 Gy IR qd7x2 ([…]), Day 1): −3.50%
Max. body weight loss (%) ([3]; PO 100 mg/kg bid (0, 4 h) qd7x 2, no IR, Day 8): −1.70%
Max. body wt loss (%) [4]: −2.40%
% T/Ti (Day 31) ([5]; PO 10 mg/kg bid (0, 4 h) qdx3, 2 Gy IR ([…])): −5.3%
% T/Ti (Day 24) ([5]; PO 10 mg/kg bid (0, 4 h) qdx3, 2 Gy IR qdx3 ([…])): −29.8%
% T/Ti (Day 24) ([5]; PO 25 mg/kg bid (0, 4 h) qdx3, 2 Gy IR qdx3 ([…])): −75.2%
% T/C (Day 31) ([5]; PO 50 mg/kg bid (0, 4 h) qdx1, 2 Gy IR ([…])): 7.2%
% T/Ti (Day 31) ([5]; PO 50 mg/kg bid (0, 4 h) qdx2, 2 Gy IR ([…])): −1.7%
% T/Ti (Day 31) ([5]; PO 50 mg/kg bid (0, 4 h) qdx3, 2 Gy IR ([…])): −14.1%
% T/Ti (Day 24) ([5]; PO 50 mg/kg bid (0, 4 h) qdx3, 2 Gy IR qdx3 ([…])): −87.6%
% T/Ti (Day 24) ([5]; PO 50 mg/kg bid (0, 4 h) qodx2, 2 Gy IR qdx3 ([…])): −79.9%
% T/C (Day 31) ([5]; PO 50 mg/kg qdx3, 2 Gy IR ([…])): 4.5%
% T/Ti (Day 30) ([5]; PO 100 mg/kg bid (0, 4 h) qdx3, 2 Gy IR ([…]) qdx3): −85.6%
% T/Ti (Day 30) ([5]; PO 100 mg/kg tid (0, 3, 7 h) qdx3, 2 Gy IR ([…]) qdx3): −90.6%
% T/Ti (Day 30) ([5]; PO 100 mg/kg tid (0, 3, 7 h) qdx5, 2 Gy IR ([…]) qdx3): −91.6%
% T/C (Day 30) ([5]; PO 100 mg/kg tid (0, 3, 7 h) qdx5, no IR): 79.1%
% T/Ti (Day 27) ([5]; first Day 27 study, PO 25 mg/kg bid (0, 4 h) qdx3, 2 Gy ([…]) IR qdx3): −80.3%
% T/Ti (Day 27) ([5]; first Day 27 study, PO 50 mg/kg bid (0, 4 h) qdx3, 2 Gy ([…]) IR qdx3): −87.8%
% T/Ti (Day 27) ([5]; first Day 27 study, PO 100 mg/kg bid (0, 4 h) qdx3, 2 Gy ([…]) IR qdx3): −90.1%
% T/Ti (Day 27) ([5]; first Day 27 study, PO 100 mg/kg qdx3, 2 Gy ([…]) IR qdx3): −76.5%
% T/Ti (Day 27) ([5]; second Day 27 study, PO 10 mg/kg bid (0, 4 h) qdx3, 2 Gy ([…]) IR qdx3): −80.3%
% T/Ti (Day 27) ([5]; second Day 27 study, PO 25 mg/kg bid (0, 4 h) qdx3, 2 Gy ([…]) IR qdx3): −87.8%
% T/Ti (Day 27) ([5]; second Day 27 study, PO 50 mg/kg bid (0, 4 h) qdx2, 2 Gy ([…]) IR qdx3): −90.1%
% T/Ti (Day 27) ([5]; second Day 27 study, PO 50 mg/kg bid (0, 4 h) qdx3, 2 Gy ([…]) IR qdx3): −76.5%
% T/Ti (Day 34) ([6]; Compound (1) PO 100 mg/kg bid (0, 4 h) qdx3, 2 Gy IR ([…]) focused): −2.8%
% T/C (Day 34) ([6]; Compound (1) PO 100 mg/kg qdx3, no IR): 95.6%
AUC [7]: 65800 ng·h/mL
